Source: US4061861A, “7-[α-(2,3-DIHYDRO-2-OXO-1H-benzimidazol-1-ylcarbonyl-amino) arylacetamido]cephalosporins” (Eli Lilly and Company, priority 1976, dated 1977)
Values after ≈ are worked out from the molar mass of the structure shown.

Assays:
Format in all cases: cell-based
X400 = assay: MIC by gradient plate in vitro method, X400 (methicillin resistant Staphylococcus); details: read-out: Minimum Inhibitory Concentration
Description: (§1) The antibiotic activity of the cephalosporin compounds of this invention is illustrated by the data provided in the following Table of representative compounds. The values in the Table are the minimum inhibitory concentrations (MIC) for the test compounds against the indicated microorganisms. The MIC values were obtained using the gradient plate in vitro method for determining antibiotic activity.
(§2) Staphylococcus. X-400 is a methicillin resistant Staphylococcus.

Serratia marcescens = assay: MIC by gradient plate in vitro method, Serratia marcescens; details: read-out: Minimum Inhibitory Concentration
Description: as §1

Klebsiella pneumoniae = assay: MIC by gradient plate in vitro method, Klebsiella pneumoniae; details: read-out: Minimum Inhibitory Concentration
Description: as §1

V84 = assay: MIC by gradient plate in vitro method, V84 (penicillin resistant Staphylococcus); details: read-out: Minimum Inhibitory Concentration
Description: as §1
(§3) ^1 Test organisms V41, V32, and V84 are penicillin resistant
as §2

Escherichia coli = assay: MIC by gradient plate in vitro method, Escherichia coli; details: read-out: Minimum Inhibitory Concentration
Description: as §1

Pseudomonas aeruginosa = assay: MIC by gradient plate in vitro method, Pseudomonas aeruginosa; details: read-out: Minimum Inhibitory Concentration
Description: as §1

Aerobacter aerogenes = assay: MIC by gradient plate in vitro method, Aerobacter aerogenes; details: Klebsiella aerogenes, read-out: Minimum Inhibitory Concentration
Description: as §1

V32 = assay: MIC by gradient plate in vitro method, V32 (penicillin resistant Staphylococcus); details: read-out: Minimum Inhibitory Concentration
Description: as §1, §3, §2

V41 = assay: MIC by gradient plate in vitro method, V41 (penicillin resistant Staphylococcus); details: read-out: Minimum Inhibitory Concentration
Description: as §1, §3, §2

Salmonella heidelberg = assay: MIC by gradient plate in vitro method, Salmonella heidelberg; details: Salmonella enterica, read-out: Minimum Inhibitory Concentration
Description: as §1

Shigella sp. = assay: MIC by gradient plate in vitro method, Shigella sp.; details: read-out: Minimum Inhibitory Concentration
Description: as §1

Structure (SMILES) | MIC (X400) [µg/mL] | MIC (Serratia marcescens) [µg/mL] | MIC (Klebsiella pneumoniae) [µg/mL] | MIC (V84) [µg/mL] | MIC (Escherichia coli) [µg/mL] | MIC (Pseudomonas aeruginosa) [µg/mL] | MIC (Aerobacter aerogenes) [µg/mL] | MIC (V32) [µg/mL] | MIC (V41) [µg/mL] | MIC (Salmonella heidelberg) [µg/mL] | MIC (Shigella sp.) [µg/mL]
CC(=O)OCC1=C(C(=O)O)N2C(=O)C(NC(=O)C(NC(=O)n3c(=O)[nH]c4ccccc43)c3ccccc3)[C@H]2SC1 (stereo partly drawn) [Test Compound A, 7-[α-(2,3-Dihydro-2-oxo-1H-benzimidazol-1-ylcarbonylamino)phenylacetamido]-3-acetoxymethyl-3-cephem-4-carboxylic acid] | > 20 | > 200 | 90 (≈ 159 µM) | 8 (≈ 14.1 µM) | 140 (≈ 248 µM) | 16 (≈ 28.3 µM) | 140 (≈ 248 µM) | 11 (≈ 19.4 µM) | 8 (≈ 14.1 µM) | 120 (≈ 212 µM) | 100 (≈ 177 µM)
Cn1nnnc1SCC1=C(C(=O)O)N2C(=O)C(NC(=O)C(NC(=O)n3c(=O)[nH]c4ccccc43)c3ccccc3)[C@H]2SC1 (stereo partly drawn) [Test Compound B, 7-[α-(2,3-Dihydro-2-oxo-1H-benzimidazol-1-ylcarbonylamino)phenylacetamido]-3-(1-methyltetrazol-5-ylthiomethyl)-3-cephem-4-carboxylic acid] | > 20 | 120 (≈ 193 µM) | 7 (≈ 11.3 µM) | 0.9 (≈ 1.45 µM) | 9 (≈ 14.5 µM) | 12 (≈ 19.3 µM) | 21.8 (≈ 35.1 µM) | 6 (≈ 9.65 µM) | 1 (≈ 1.61 µM) | 15 (≈ 24.1 µM) | 16 (≈ 25.7 µM)
CC(=O)OCC1=C(C(=O)O)N2C(=O)C(NC(=O)C(NC(=O)n3c(=O)n(C)c4ccccc43)c3ccccc3)[C@H]2SC1 (stereo partly drawn) [Test Compound C, 7-[α-(3-Methyl-2,3-dihydro-2-oxo-1H-benzimidazol-1-ylcarbonylamino)phenylacetamido]-3-acetoxymethyl-3-cephem-4-carboxylic acid] | > 20 | > 200 | 25 (≈ 43.1 µM) | 0.9 (≈ 1.55 µM) | 72.5 (≈ 125 µM) | 8.5 (≈ 14.7 µM) | 120 (≈ 207 µM) | 6 (≈ 10.4 µM) | 5 (≈ 8.63 µM) | 80 (≈ 138 µM) | 55 (≈ 94.9 µM)
Cn1nnnc1SCC1=C(C(=O)O)N2C(=O)C(NC(=O)C(NC(=O)n3c(=O)n(C)c4ccccc43)c3ccccc3)[C@H]2SC1 (stereo partly drawn) [Test Compound D, 7-[α-(3-Methyl-2,3-dihydro-2-oxo-1H-benzimidazol-1-ylcarbonylamino)phenylacetamido]-3-(1-methyltetrazol-5-ylthiomethyl)-3-cephem-4-carboxylic acid] | 16 (≈ 25.2 µM) | > 200 | 19 (≈ 29.9 µM) | 0.6 (≈ 0.944 µM) | 14 (≈ 22 µM) | 8 (≈ 12.6 µM) | 30 (≈ 47.2 µM) | 3 (≈ 4.72 µM) | 3 (≈ 4.72 µM) | 18 (≈ 28.3 µM) | 15 (≈ 23.6 µM)
NC(=O)OCC1=C(C(=O)O)N2C(=O)C(NC(=O)C(NC(=O)n3c(=O)[nH]c4ccccc43)c3ccc(O)cc3)[C@H]2SC1 (stereo partly drawn) [Test Compound E, 7-[α-(2,3-dihydro-2-oxo-1H-benzimidazol-1-ylcarbonylamino)-4-hydroxyphenylacetamido]-3-carbamoyloxymethyl-3-cephem-4-carboxylic acid] | 180 (≈ 309 µM) | > 200 | 100 (≈ 172 µM) | 0.7 (≈ 1.2 µM) | 160 (≈ 275 µM) | 10 (≈ 17.2 µM) | > 200 | 5 (≈ 8.58 µM) | 5 (≈ 8.58 µM) | 120 (≈ 206 µM) | 120 (≈ 206 µM)
